Measured values as given in patent US12391676B2 (H. LEE MOFFITT CANCER CENTER AND RESEARCH INSTITUTE, INC., priority 2018, dated 2025).

target: BRD4 (Homo sapiens (Human), UniProt O60885); test: BRD4 DSF thermal shift (ΔTm); type: binding; settings: Table 1

| SMILES | DSF ΔTm |
| --- | --- |
| CN1CCN(c2ccc(Nc3ncc(F)c(Nc4ccc(Cl)c(NS(=O)(=O)C(C)(C)C)c4)n3)cc2)CC1 | 9.6 ± 0.9 °C |
| CN1CCC(c2ccc(Nc3ncc(C(F)(F)F)c(Nc4ccc(Cl)c(NS(=O)(=O)C(C)(C)C)c4)n3)cc2F)CC1 | 10.4 ± 0.1 °C |
| Cc1cnc(Nc2ccc(OCCN3CCCC3)c(F)c2)nc1Nc1ccc(Cl)c(NS(=O)(=O)C(C)(C)C)c1 | 15.1 ± 0.1 °C |
| Cc1cnc(Nc2ccc(OCCN3CCCC3)cc2)nc1Nc1ccc(Cl)c(NS(=O)(=O)C(C)(C)C)c1 | 12.9 ± 0.1 °C |
| Cc1cnc(Nc2ccc(OCCN3CCCC3)c(F)c2)nc1Nc1cccc(NS(=O)(=O)C(C)(C)C)c1 | 12.6 ± 0.1 °C |
| Cc1cnc(Nc2ccc(C3CCN(C)CC3)c(F)c2)cc1Nc1ccc2c(c1)N(S(=O)(=O)C(C)(C)C)CC2 [drawing 16] | 8.9 ± 0.2 °C |

same assay, conditions: Table 2

| SMILES | BRD4 DSF (ΔTm) |
| --- | --- |
| Cc1cnc(Nc2ccc(OCCN3CCCC3)cc2)nc1Nc1cc(NS(=O)(=O)C(C)(C)C)ncn1 | 1.1 °C |
| Cc1cnc(Nc2ccc(N3CCN(C)CC3)c(F)c2)cc1Nc1ccc2c(c1)N(S(=O)(=O)C(C)(C)C)CC2 [MA9-042, N^4-(1-(tert-Butylsulfonyl)indolin-6-yl)-N^2-(3-fluoro-4-(4-methylpiperazin-1-yl)phenyl)-5-methylpyridine-2,4-diamine] | 6.1 °C |
| Cc1cnc(Nc2ccc(C3CCN(C)CC3)c(F)c2)nc1Nc1ccc2ccn(S(=O)(=O)C(C)(C)C)c2n1 [MA10-148, N4-(1-(Tert-butylsulfonyl)-1H-pyrrolo[2,3b]pyridin-6-yl)-N2-(3-fluoro-4-(1-methylpiperidin-4-yl)phenyl)-5-methylpyrimidine-2,4-diamine] | 7.6 °C |
| Cc1cnc(Nc2cc(F)c(C3CCN(C)CC3)cn2)nc1Nc1ccc2ccn(S(=O)(=O)C(C)(C)C)c2n1 [MA10-149, N4-(1-(tert-butylsulfonyl)-1H-pyrrolo[2,3-b]pyridin-6-yl)-N2-(4-fluoro-5-(1-methylpiperidin-4-yl)pyridin-2-yl)-5-methylpyrimidine-2,4-diamine] | 6.2 °C |
| Cc1cnc(Nc2ccc(C3CCN(C)CC3)c(F)c2)nc1Nc1cc(NS(=O)(=O)C(C)(C)C)ncn1 [MA10-174, N-(6-((2-((3-fluoro-4-(1-methylpiperidin-4-yl)phenyl)amino)-5-methylpyrimidin-4yl)amino)pyrimidin-4-yl)-2-methylpropane-2-sulfonamide] | 0.9 °C |
| Cc1cnc(Nc2ccc(OCCN3CCCC3)c(F)c2)nc1Nc1cc(NS(=O)(=O)C(C)(C)C)ncn1 [MA10-176, N-(6-((2-((3-fluoro-4-(2-(pyrrolidin-1-yl)ethoxy)phenyl)amino)-5-methylpyrimidin-4-yl)amino)pyrimidin-4-yl)-2-methylpropane-2-sulfonamide] | 1.4 °C |
| Cc1cnc(Nc2cc(F)c(C3CCN(C)CC3)cn2)nc1Nc1cc(NS(=O)(=O)C(C)(C)C)ncn1 [MA10-178, N-(6-((2-((4-fluoro-5-(1-methylpiperidin-4-yl)pyridin-2-yl)amino)-5-methylpyrimidin-4-yl)amino)pyrimidin-4-yl)-2-methylpropane-2-sulfonamide] | 2.8 °C |
| Cc1cnc(Nc2ccc(C3CCN(C)CC3)c(F)n2)nc1Nc1cc(NS(=O)(=O)C(C)(C)C)ncn1 [MA10-179, N-(6-((2-((6-fluoro-5-(1-methylpiperidin-4-yl)pyridin-2-yl)amino)-5-methylpyrimidin-4-yl)amino)pyrimidin-4-yl)-2-methylpropane-2-sulfonamide] | 1.4 °C |
| Cc1cnc(Nc2ccc(C3CCN(C)CC3)c(F)c2)nc1Nc1ncc2ccn(S(=O)(=O)C(C)(C)C)c2n1 [MA11-003, N4-(7-(tert-butylsulfonyl)-7H-pyrrolo[2,3-d]pyrimidin-2-yl)-N2-(3-fluoro-4-(1-methylpiperidin-4-yl)phenyl)-5-methylpyrimidine-2,4-diamine] | 8.0 °C |
| Cc1cnc(Nc2cc(F)c(C3CCN(C)CC3)c(F)c2)nc1Nc1cc(NS(=O)(=O)C(C)(C)C)ncn1 [MA11-009, N-(6-((2-((3,5-difluoro-4-(1-methylpiperidin-4-yl)phenyl)amino)-5-methylpyrimidin-4-yl)amino)pyrimidin-4-yl)-2-methylpropane-2-sulfonamide] | 1.1 °C |
| Cc1cnc(Nc2cc(F)ncn2)nc1Nc1ccc(Cl)c(NS(=O)(=O)C(C)(C)C)c1 [PN2-064, N-(2-Chloro-5-((2-((6-fluoropyrimidin-4-yl)amino)-5-methylpyrimidin-4-yl)amino)phenyl)-2-methylpropane-2-sulfonamide] | 1.1 °C |
| Cc1cnc(Nc2ccc(C3CCN(C)CC3)cn2)nc1Nc1ccc(Cl)c(NS(=O)(=O)C(C)(C)C)c1 [PN2-081, N-(2-Chloro-5-((5-methyl-2-((5-(1-methylpiperidin-4-yl)pyridin-2-yl)amino)pyrimidin-4-yl)amino)phenyl)-2-methylpropane-2-sulfonamide] | 12.3 °C |
| Cc1cnc(Nc2cc(F)c(C3CCNCC3)cn2)nc1Nc1ccc(Cl)c(NS(=O)(=O)C(C)(C)C)c1.Cl [PN2-084, N-(2-Chloro-5-((2-((4-fluoro-5-(piperidin-4-yl)pyridin-2-yl)amino)-5-methylpyrimidin-4-yl)amino)phenyl)-2-methylpropane-2-sulfonamide hydrochloride] | 14.5 °C |
| Cc1cnc(Nc2ccc(N3CCN(C)CC3)cn2)nc1Nc1ccc(Cl)c(NS(=O)(=O)C(C)(C)C)c1 [PN2-091, N-(2-Chloro-5-((5-methyl-2-((5-(4-methylpiperazin-1-yl)pyridin-2-yl)amino)pyrimidin-4-yl)amino)phenyl)-2-methylpropane-2-sulfonamide] | 11.5 °C |
| Cc1cnc(Nc2cc(F)c(C3CCN(C)CC3)cn2)nc1Nc1cccc(NS(=O)(=O)C(C)(C)C)c1 [PN2-103, N-(3-((2-((4-Fluoro-5-(1-methylpiperidin-4-yl)pyridin-2-yl)amino)-5-methylpyrimidin-4-yl)amino)phenyl)-2-methylpropane-2-sulfonamide] | 12.4 °C |
| Cc1cnc(Nc2ccc(C3CCN(C)CC3)cc2)cc1Nc1cccc(NS(=O)(=O)C(C)(C)C)c1 [SY3-030, 2-Methyl-N-(3-((5-methyl-2-((4-(1-methylpiperidin-4-yl)phenyl)amino)pyridin-4-yl)amino)phenyl)propane-2-sulfonamide] | 6.3 °C |

system: MM1.S cells; test: Antiproliferative activity, MM1.S cells; type: cell-based; settings: Homo sapiens, Table 2, read-out: GI50 (MM1S)
Procedure: Cellular activity of promising compounds is assessed using MM.1S and MV4-11 AML cells using c-Myc levels as biomarker (6-12 hr treatment) and antiproliferative activity (48-72 hr treatment) as described (Ciceri et al., Dual kinase-bromodomain inhibitors for rationally designed polypharmacology. Nat Chem Biol 2014).

| SMILES | GI50 |
| --- | --- |
| Cc1cnc(Nc2ccc(N3CCN(C)CC3)c(F)c2)cc1Nc1ccc(Cl)c(NS(=O)(=O)C(C)(C)C)c1 [MA9-036, N-(2-Chloro-5-((2-((3-fluoro-4-(4-methylpiperazin-1-yl)phenyl)amino)-5-methylpyridin-4-yl)amino)phenyl)-2-methylpropane-2-sulfonamide] | 3120 nM |
| Cc1cnc(Nc2cc(F)c(N3CCN(C)CC3)c(F)c2)cc1Nc1ccc(Cl)c(NS(=O)(=O)C(C)(C)C)c1 [MA9-037, N-(2-Chloro-5-((2-((3,5-difluoro-4-(4-methylpiperazin-1-yl)phenyl)amino)-5-methylpyridin-4-yl)amino)phenyl)-2-methylpropane-2-sulfonamide·bisformate] | 2830 nM |
| Cc1cc(Nc2ncc(C)c(Nc3ccc(Cl)c(NS(=O)(=O)C(C)(C)C)c3)n2)c(F)cc1C1CCN(C)CC1 [PN1-119, N-(2-Chloro-5-((2-((2-fluoro-5-methyl-4-(1-methylpiperidin-4-yl)phenyl)amino)-5-methylpyrimidin-4-yl)amino)phenyl)-2-methylpropane-2-sulfonamide] | 390 nM |
